Molecules are shown by their SMILES. Bounds are passed on as bounds.

In the experiment the target is memapsin 2 (Homo sapiens, UniProt P56817). As to the kind of experiment: Inhibition of memapsin 2 beta-secretase activity (fluorogenic substrate FS-2). Type of experiment: biochemical. The following applies: memapsin 2, pH 4, 37° C., 20 minutes pre-incubation; read-out: M2Ki. The method, then: Potency of compounds were determined by measurement of their inhibition of memapsin 2 activity toward a fluorescent substrate. Kinetic inhibition experiments were performed using the procedure as described in Ermolieff, et al. (Biochemistry 39:12450-12456 (2000), the teachings of which are incorporated hereby in their entirety). Briefly, assays were performed at pH 4, 37° C., by pre-incubation of memapsin 2 enzyme with compound for 20 minutes. Activity measurements were initiated by addition of a fluorogenic substrate FS-2 (Bachem Americas, Torrance, Calif.) MCA-SEVNLDAEFR-DNP (SEQ ID NO.: 2). The substrate was derived from 10 amino acids of the human amyloid precursor protein (APP), with the Swedish variant amino acids at the beta-secretase cleavage site. The terminal amino acid was modified from arginine to lysine to facilitate derivatization with a functional group for detection by autofluorescence. The amino acid sequence of the “core” peptide of the substrate is SEVNLDAEFK (SEQ ID NO.: 3). The amino terminus was derivatized with (7-methoxycoumarin-4-yl)acetyl (MCA), and the epsilon amine of the lysine side chain of the terminal residue (K in sequence SEVNLDAEFK (SEQ ID NO.: 3)) was derivatized with 2,4-dinitorphenyl (DNP).
Chain of memapsin 2 (P56817 46-501): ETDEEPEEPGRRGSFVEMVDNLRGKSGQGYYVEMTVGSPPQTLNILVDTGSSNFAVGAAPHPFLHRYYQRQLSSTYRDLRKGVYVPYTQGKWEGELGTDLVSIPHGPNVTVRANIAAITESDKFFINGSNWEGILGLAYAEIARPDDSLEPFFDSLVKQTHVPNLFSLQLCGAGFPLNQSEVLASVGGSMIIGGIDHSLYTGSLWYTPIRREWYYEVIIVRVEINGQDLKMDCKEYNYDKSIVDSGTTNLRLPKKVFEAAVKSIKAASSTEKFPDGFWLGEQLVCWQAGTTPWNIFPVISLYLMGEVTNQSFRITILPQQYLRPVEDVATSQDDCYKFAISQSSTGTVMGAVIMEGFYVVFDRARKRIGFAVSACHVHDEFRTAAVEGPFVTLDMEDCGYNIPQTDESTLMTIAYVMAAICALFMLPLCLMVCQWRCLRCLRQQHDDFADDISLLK
Fluorescent signal increase over time was measured as a rate of hydrolysis of the peptide substrate. Inhibition of hydrolytic rate was expressed relative to uninhibited controls and fit to a model for tight-binding inhibitors (J. Bieth, in “Proteinase Inhibitors,” Bayer Symposium V, 463-469, 1974, which is herein incorporated by reference for all purposes in its entirety).
Regarding `CSCc1ccc(CNC[C@@H](O)[C@H](Cc2ccccc2)NC(=O)c2cccc(C(=O)N(C)Cc3nc(C)cs3)c2)nc1C` [Compound 87, N1-((2S,3R)-3-hydroxy-4-((6-methyl-5-(methylthiomethyl)pyridin-2-yl)methylamino)-1-phenylbutan-2-yl)-N3-methyl-N3-((4-methylthiazol-2-yl)methyl)isophthalamide], the Ki was over 501 nM. The same measure for `Cc1csc(CNC(=O)c2cccc(C(=O)N[C@@H](Cc3ccccc3)[C@H](O)CNCc3ccc(CS(C)(=O)=O)c(C)n3)c2)n1` [Compound 101, N1-((2S,3R)-3-hydroxy-4-((6-methyl-5-(methylsulfonylmethyl)pyridin-2-yl)methylamino)-1-phenylbutan-2-yl)-N3-((4-methylthiazol-2-yl)methyl)isophthalamide]: over 501 nM; for `COc1cccc(CNC[C@@H](O)[C@H](Cc2ccccc2)NC(=O)c2cc(C(=O)NCc3nccc(C)n3)cc(N(C)S(C)(=O)=O)c2)c1` [Compound 105, N1-((2S,3R)-3-hydroxy-4-(3-methoxybenzylamino)-1-phenylbutan-2-yl)-5-(N-methylmethylsulfonamido)-N3-((4-methylpyrimidin-2-yl)methyl)isophthalamide]: over 501 nM; for `COc1cccc(CNC[C@@H](O)[C@H](Cc2ccccc2)NC(=O)c2cccc(C(=O)N(C)Cc3cccc(C)n3)c2)c1` [Compound 108, N1-((2S,3R)-3-hydroxy-4-(3-methoxybenzylamino)-1-phenylbutan-2-yl)-N3-methyl-N3-((6-methylpyridin-2-yl)methyl)isophthalamide]: 301 to 500 nM.

In the case of `C[C@@H](NC(=O)c1cc(C(=O)N[C@@H](Cc2ccccc2)[C@H](O)CNCc2cc(C(C)(C)C)ccc2O[Si](C)(C)C(C)(C)C)cc(N(C)S(C)(=O)=O)c1)c1ccccc1` [Compound 109, N1-((2S,3R)-4-(5-tert-butyl-2-(tert-butyldimethylsilyloxy)benzylamino)-3-hydroxy-1-phenylbutan-2-yl)-5-(N-methylmethylsulfonamido)-N3-((R)-1-phenylethyl)isophthalamide], the Ki was under 300 nM. Then `Cc1c(CNC[C@@H](O)[C@H](Cc2ccccc2)NC(=O)c2cc(C(=O)N[C@H](C)c3ccccc3)cc(N(C)S(C)(=O)=O)c2)cnn1C(C)(C)C` [Compound 120, N1-((2S,3R)-4-((1-tert-butyl-5-methyl-1H-pyrazol-4-yl)methylamino)-3-hydroxy-1-phenylbutan-2-yl)-5-(N-methylmethylsulfonamido)-N3-((R)-1-phenylethyl)isophthalamide], with 301 to 500 nM; and `COc1cccc(CNC[C@@H](O)[C@H](Cc2ccccc2)NC(=O)c2cc(NO)cc(C(=O)N[C@H](C)c3ccccc3)c2)c1` [Compound 123, N1-((2S,3R)-3-hydroxy-4-(3-methoxybenzylamino)-1-phenylbutan-2-yl)-5-(hydroxyamino)-N3-((R)-1-phenylethyl)isophthalamide], with over 501 nM.

`COc1cccc(CNC[C@@H](O)[C@H](Cc2ccccc2)NC(=O)c2cc(C(=O)NCc3cccc(C)n3)cc(N(C)S(C)(=O)=O)c2)c1` [Compound 127, N1-((2S,3R)-3-hydroxy-4-(3-methoxybenzylamino)-1-phenylbutan-2-yl)-5-(N-methylmethylsulfonamido)-N3-((6-methylpyridin-2-yl)methyl)isophthalamide]: the Ki was over 501 nM. Then `Cc1csc(CN(C)C(=O)c2cccc(C(=O)N[C@H](Cc3ccccc3)[C@@H](O)CNCc3cncc(C(C)C)c3)c2)n1` [Compound 128, N1-((2R,3S)-3-hydroxy-4-((5-isopropylpyridin-3-yl)methylamino)-1-phenylbutan-2-yl)-N3-methyl-N3-((4-methylthiazol-2-yl)methyl)isophthalamide], with over 501 nM; and `COCCn1ncc(CNC[C@@H](O)[C@H](Cc2ccccc2)NC(=O)c2cc(C(=O)N[C@H](C)c3ccccc3)cc(N(C)S(C)(=O)=O)c2)c1C` [Compound 131, N1-((2S,3R)-3-hydroxy-4-((1-(2-methoxyethyl)-5-methyl-1H-pyrazol-4-yl)methylamino)-1-phenylbutan-2-yl)-5-(N-methylmethylsulfonamido)-N3-((R)-1-phenylethyl)isophthalamide], with under 300 nM; and `COCCn1ncc(CNC[C@@H](O)[C@H](Cc2ccccc2)NC(=O)c2cccc(C(=O)N(C)Cc3nc(C)cs3)c2)c1C` [Compound 132, N1-((2S,3R)-3-hydroxy-4-((1-(2-methoxyethyl)-5-methyl-1H-pyrazol-4-yl)methylamino)-1-phenylbutan-2-yl)-N3-methyl-N3-((4-methylthiazol-2-yl)methyl)isophthalamide], with over 501 nM. Then `COc1cccc(CNC[C@@H](O)[C@H](Cc2ccccc2)NC(=O)c2cccc(C(=O)N(C)Cc3nccc(C)n3)c2)c1` [Compound 136, N1-((2S,3R)-3-hydroxy-4-(3-methoxybenzylamino)-1-phenylbutan-2-yl)-N3-methyl-N3-((4-methylpyrimidin-2-yl)methyl)isophthalamide], with over 501 nM; and `C[C@@H](NC(=O)c1cc(C(=O)N[C@@H](Cc2ccccc2)[C@H](O)CNCc2cnn(C(C)(C)C)c2)cc(N(C)S(C)(=O)=O)c1)c1ccccc1` [Compound 138, N1-((2S,3R)-4-((1-tert-butyl-1H-pyrazol-4-yl)methylamino)-3-hydroxy-1-phenylbutan-2-yl)-5-(N-methylmethylsulfonamido)-N3-((R)-1-phenylethyl)isophthalamide], with over 501 nM. As to `Cc1csc(CN(C)C(=O)c2cccc(C(=O)N[C@@H](Cc3ccccc3)[C@@H](O)CNCc3cncc(C(C)C)c3)c2)n1` [Compound 147, N1-((2S,3S)-3-hydroxy-4-((5-isopropylpyridin-3-yl)methylamino)-1-phenylbutan-2-yl)-N3-methyl-N3-((4-methylthiazol-2-yl)methyl)isophthalamide], the Ki is over 501 nM.

Take `Cc1csc(CN(C)C(=O)c2cccc(C(=O)N[C@H](Cc3ccccc3)[C@H](O)CNCc3cncc(C(C)C)c3)c2)n1` [Compound 151, N1-((2R,3R)-3-hydroxy-4-((5-isopropylpyridin-3-yl)methylamino)-1-phenylbutan-2-yl)-N3-methyl-N3-((4-methylthiazol-2-yl)methyl)isophthalamide]: the Ki was over 501 nM. As for `CCN(CC)c1cccc(CNC[C@@H](O)[C@H](Cc2ccccc2)NC(=O)c2cccc(C(=O)N(C)Cc3nc(C)cs3)c2)c1` [Compound 152, N1-((2S,3R)-4-(3-(diethylamino)benzylamino)-3-hydroxy-1-phenylbutan-2-yl)-N3-methyl-N3-((4-methylthiazol-2-yl)methyl)isophthalamide], the Ki was under 300 nM. Turning to `Cc1csc(CN(C)C(=O)c2cccc(C(=O)N[C@@H](Cc3ccccc3)[C@H](O)CNCc3cc(C(C)C)cnc3C)c2)n1` [Compound 153, N1-((2S,3R)-3-hydroxy-4-((5-isopropyl-2-methylpyridin-3-yl)methylamino)-1-phenylbutan-2-yl)-N3-methyl-N3-((4-methylthiazol-2-yl)methyl)isophthalamide], the Ki was under 300 nM. Then `Cc1csc(CN(C)C(=O)c2cccc(C(=O)N[C@@H](Cc3ccccc3)[C@H](O)CN(Cc3cnn(C)c3)Cc3cnn(C)c3)c2)n1` [Compound 156, N1-((2S,3R)-4-(bis((1-methyl-1H-pyrazol-4-yl)methyl)amino)-3-hydroxy-1-phenylbutan-2-yl)-N3-methyl-N3-((4-methylthiazol-2-yl)methyl)isophthalamide], with over 501 nM; and `Cc1csc(CN(C)C(=O)c2cccc(C(=O)N[C@@H](Cc3ccccc3)[C@H](O)CNC(C)c3cccc(C(F)F)c3)c2)n1` (stereo partly drawn) [Compound 157, N1-((2S,3R)-4-(1-(3-(difluoromethyl)phenyl)ethylamino)-3-hydroxy-1-phenylbutan-2-yl)-N3-methyl-N3-((4-methylthiazol-2-yl)methyl)isophthalamide], with under 300 nM. On to `C=C(C)c1cc(O)cc(CNC[C@@H](O)[C@H](Cc2ccccc2)NC(=O)c2cccc(C(=O)N(C)Cc3nc(C)cs3)c2)c1` [Compound 159, N1-((2S,3R)-3-hydroxy-4-(3-hydroxy-5-(prop-1-en-2-yl)benzylamino)-1-phenylbutan-2-yl)-N3-methyl-N3-((4-methylthiazol-2-yl)methyl)isophthalamide], for which the Ki is under 300 nM. For `Cc1csc(CN(C)C(=O)c2cccc(C(=O)N[C@@H](Cc3ccccc3)[C@H](O)CNCc3cccc(C(C)O)c3)c2)n1` (stereo partly drawn) [Compound 160, N1-((2S,3R)-3-hydroxy-4-(3-(1-hydroxyethyl)benzylamino)-1-phenylbutan-2-yl)-N3-methyl-N3-((4-methylthiazol-2-yl)methyl)isophthalamide], the Ki is under 300 nM. For the molecule `COc1cccc(CNC[C@@H](O)[C@H](Cc2ccccc2)NC(=O)c2cc(C(=O)N(C)Cc3nc(C)cs3)cc(-c3ccncc3)c2)c1` [Compound 203, N1-((2S,3R)-3-hydroxy-4-(3-methoxybenzylamino)-1-phenylbutan-2-yl)-N3-methyl-N3-((4-methylthiazol-2-yl)methyl)-5-(pyridin-4-yl)isophthalamide], the Ki is under 300 nM.

The values are drawn from patent US20100286145A1, “ISOPHTHALAMIDE DERIVATIVES INHIBITING BETA-SECRETASE ACTIVITY” (CoMentis, Inc., priority 2007, published 2010).
